Where a name gives a salt, the structure may show the parent alone.
How the values were obtained:
[1] = tested on: fibrin-induced microglia activation; test: Image-based assay of fibrin-induced microglia activation (HTS and dose response); assay type: cell-based, rat; details: primary microglia HTS, fibrin stimulation, increased cell size (>800 μm^2) as marker of activation; for inhibition at 10 µM: Rattus norvegicus, Microglia, read-out: Fibrin % inhibition
[2] = tested on: LPS-induced microglia activation; test: Image-based assay of LPS-induced microglia activation (HTS and dose response); assay type: cell-based, rat; details: primary microglia HTS, LPS stimulation, increased cell size (>800 μm^2) as marker of activation; for inhibition at 10 µM: Rattus norvegicus, Microglia, 48 h, read-out: LPS % inhibition
[3] = tested on: fibrin- and LPS-induced microglia activation; test: cells; assay type: cell-based, rat; details: quadrant by fibrin and LPS inhibition in HTS of 1907 compounds
primary rat microglia [4] = test: Cell toxicity (dead cells, size <150 μm2) in LPS assay; details: primary microglia HTS, LPS stimulation; decreased size (<150 μm^2) as marker of toxicity
primary rat microglia [5] = test: Cell toxicity (dead cells, size <150 μm2) in coated fibrin (cFib) assay; details: primary microglia HTS, fibrin stimulation; decreased size (<150 μm^2) as marker of toxicity;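 also: share of dead cells sized under 150 µm2 at 10 µM in fibrin-stimulated microglia HTS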

| Compound | inhibition at 10 µM [1] [%] | inhibition at 10 µM [2] [%] | Quadrant (FIG. 5b) [3] | LPS % cell toxicity (primary rat microglia [4]) [%] | Fibrin % cell toxicity (primary rat microglia [5]) [%] | Fibrin % inhibition [1] [%] | LPS % inhibition [2] [%] |
| --- | --- | --- | --- | --- | --- | --- | --- |
| CN1C(CCl)Nc2cc(Cl)c(S(N)(=O)=O)cc2S1(=O)=O (centres unmarked) [Methyclothiazide] | 25 | 17 | Q4 | 0 | 1 | – | – |
| C[N+]1(C)[C@@H]2CC[C@H]1C[C@@H](OC(=O)C(CO)c1ccccc1)C2 (some centres unmarked) [Methylatropine Nitrate] | -2 | 14 | Q4 | 0 | 1 | – | – |
| C[C@]12CCC(=O)C=C1CC[C@@H]1[C@@H]2CC[C@@]2(C)[C@H]1CC[C@]2(C)O [Methyltestosterone] | -40 | -2 | Q4 | 0 | 1 | – | – |
| Cc1cc(=O)[nH]c(=S)[nH]1 [Methylthiouracil] | 31 | 16 | Q4 | 0 | 0 | – | – |
| COc1cccc(OC)c1C(=O)N[C@@H]1C(=O)N2[C@@H]1SC(C)(C)[C@@H]2C(=O)O [Meticillin] | -19 | 18 | Q4 | 0 | 0 | – | – |
| Cc1cc2c(cc1S(N)(=O)=O)S(=O)(=O)CCC2 [Meticrane] | -33 | 9 | Q4 | 0 | 0 | – | – |
| CCN(CC)CCNC(=O)c1cc(Cl)c(N)cc1OC [Metoclopramide] | -2 | 12 | Q4 | 0 | 1 | – | – |
| Cc1ccccc1N1C(=O)c2cc(S(N)(=O)=O)c(Cl)cc2NC1C (centres unmarked) [Metolazone] | -2 | 19 | Q4 | 0 | 1 | – | – |
| COCCc1ccc(OCC(O)CNC(C)C)cc1 (centres unmarked) [Metoprolol] | 4 | 22 | Q4 | 0 | 1 | – | – |
| COP(=O)(OC)C(O)C(Cl)(Cl)Cl (centres unmarked) [Metrifonate] | -34 | 8 | Q4 | 0 | 0 | – | – |
| COc1ccc(C(=O)c2ccc(C)cc2)c(O)c1 [Mexeneone] | – | – | Q4 | 0 | 1 | −8 | 9 |
| OCCN1C[C@H](O)[C@@H](O)[C@H](O)[C@H]1CO [Miglitol] | -9 | 13 | Q4 | 0 | 0 | – | – |
| CCCCN1C[C@H](O)[C@@H](O)[C@H](O)[C@H]1CO [Miglustat] | -6 | 0 | Q4 | 0 | 1 | – | – |
| CCCCCCCCCCCCCCCCOP(=O)([O-])OCC[N+](C)(C)C [Miltefosine] | -31 | 11 | Q4 | 0 | 1 | – | – |
| Cc1cc(-c2ccccc2)nnc1NCCN1CCOCC1 [Minaprine] | -22 | 10 | Q4 | 0 | 0 | – | – |
| O=C(NCCN1CCOCC1)c1ccc(Cl)cc1 [Moclobemide] | -6 | 14 | Q4 | 0 | 1 | – | – |
| NC(=O)C[S+]([O-])C(c1ccccc1)c1ccccc1 (centres unmarked) [Modafinil] | -5 | 25 | Q4 | 0 | 1 | – | – |
| CCOC(=O)[C@H](CCc1ccccc1)N[C@@H](C)C(=O)N1Cc2cc(OC)c(OC)cc2C[C@H]1C(=O)O [Moexipril] | -29 | 9 | Q4 | 1 | 1 | – | – |
| CCOC(=O)CC(=O)N1CCSC1COc1ccccc1OC (centres unmarked) [Moguisteine] | -2 | 15 | Q4 | 0 | 1 | – | – |

| Compound | inhibition at 10 µM [1] [%] | inhibition at 10 µM [2] [%] | Quadrant (FIG. 5b) [3] | LPS % cell toxicity (primary rat microglia [4]) [%] | Fibrin % cell toxicity (primary rat microglia [5]) [%] | Fibrin % inhibition [1] [%] | LPS % inhibition [2] [%] |
| --- | --- | --- | --- | --- | --- | --- | --- |
| Oc1ccc(OCc2ccccc2)cc1 [Monobenzone] | 7 | 16 | Q4 | 0 | 1 | – | – |
| Cc1ccsc1/C=C/C1=NCCCN1C [Morantel Citrate] | -11 | 11 | Q4 | 0 | 1 | – | – |
| N=C(N)/N=C(\N)N1CCOCC1 [Moroxydine Hydrochloride] | -22 | 4 | Q4 | 0 | 1 | – | – |
| CO/N=C1\C[C@]2(C[C@@H]3C[C@@H](C/C=C(\C)C[C@@H](C)/C=C/C=C4\CO[C@@H]5[C@H](O)C(C)=C[C@@H](C(=O)O3)[C@]45O)O2)O[C@H](/C(C)=C/C(C)C)[C@H]1C [Moxidectin] | 1 | 14 | Q4 | 1 | 0 | – | – |
| CC(=O)Oc1cc(C(C)C)c(OCCN(C)C)cc1C [Moxisylyte] | -22 | 3 | Q4 | 0 | 0 | – | – |
| C/C(=C\C(=O)OCCCCCCCCC(=O)O)C[C@@H]1OC[C@H](C[C@@H]2O[C@H]2[C@@H](C)[C@H](C)O)[C@@H](O)[C@H]1O [Mupirocin] | 11 | 20 | Q4 | 0 | 1 | – | – |
| CC(=O)N[C@H]1[C@H]([C@H](O)[C@H](O)CO)OC(O)(C(=O)O)C[C@@H]1O (some centres unmarked) [N-acetylneuramic Acid, Aceneuramic Acid] | – | – | Q4 | 1 | 1 | −9 | 19 |
| COc1ccc2cc(CCC(C)=O)ccc2c1 [Nabumetone] | -13 | 15 | Q4 | 0 | 1 | – | – |
| NC(=O)c1ccc[n+]([C@@H]2O[C@H](COP(=O)([O-])OP(=O)(O)OC[C@H]3O[C@@H](n4cnc5c(N)ncnc54)[C@H](O)[C@@H]3O)[C@@H](O)[C@H]2O)c1 [Nadide] | -14 | 5 | Q4 | 0 | 1 | – | – |
| CCOc1ccc2ccccc2c1C(=O)N[C@@H]1C(=O)N2[C@@H]1SC(C)(C)[C@@H]2C(=O)O [Nafcillin Sodium] | -7 | 15 | Q4 | 0 | 0 | – | – |
| CCN(CC)CCOC(=O)C(Cc1cccc2ccccc12)CC1CCCO1 (centres unmarked) [Nafronyl Oxalate] | 15 | 15 | Q4 | 0 | 1 | – | – |
| CCn1cc(C(=O)O)c(=O)c2ccc(C)nc21 [Nalidixic Acid] | -1 | 13 | Q4 | 1 | 1 | – | – |
| CC1CCCC(C)N1 (centres unmarked) [Nanofin] | – | – | Q4 | 0 | 1 | 17 | 12 |
| c1ccc2c(CC3=NCCN3)cccc2c1 [Naphazoline] | -1 | 13 | Q4 | 1 | 1 | – | – |
| COc1ccc2cc([C@H](C)CO)ccc2c1 [Naproxol] | -10 | 16 | Q4 | 0 | 0 | – | – |
| C[C@@H]1C/C=C/C=C/C=C/C=C/[C@H](O[C@@H]2O[C@H](C)[C@@H](O)[C@H](N)[C@@H]2O)C[C@@H]2O[C@](O)(C[C@@H](O)C[C@H]3O[C@@H]3/C=C/C(=O)O1)C[C@H](O)[C@H]2C(=O)O [Natamycin] | -7 | 35 | Q4 | 0 | 1 | – | – |
| CCc1nn(CCCN2CCN(c3cccc(Cl)c3)CC2)c(=O)n1CCOc1ccccc1 [Nefazodone] | -37 | 3 | Q4 | 0 | 0 | – | – |
| Cc1cccc(C)c1NC(=O)CN1CCCC1=O [Nefiracetam] | -21 | 13 | Q4 | 0 | 0 | – | – |
